A short description of data set [1]: Anti-fibrogenic activity in human LX2 cells assessed as inhibition of TGFbeta1-induced COL1A1 mRNA expression at 10 uM incubated for 24 hrs by RT-PCR analysis. The format is functional. The note with it: LX-2.
Data set [2] deals with COL1A1 promoter. Briefly: Inhibition of COL1A1 promotor activity in human LX2 cells at 50 uM incubated for 24 hrs by luciferase reporter gene assay. Type of data set: cell-based.
Data set [3] can be described thus: Cytotoxicity against human LX2 cells assessed as cell death incubated for 24 hrs by MTT assay. Type of data set: cell-based, LX-2. A general note: Tetrazolium dyes change colour on reduction, which living cells bring about.
In data set [4] the test system is COL1A1 promoter. The experiment in a line: Inhibition of COL1A1 promotor activity in human LX2 cells at 20 uM incubated for 24 hrs by luciferase reporter gene assay. The format is cell-based. A general note: Reporter assays use an easily measured gene product as a stand-in for the process of interest.
The test system of data set [5] is Rattus norvegicus. Briefly: Anti-fibrotic activity in Sprague-Dawley rat model of BDL-induced […] fibrosis assessed as reduction in hepatic collagen accumulation in hepatic parenchyma at 200 mg/kg oral gavage for 14 days by Sirius red staining-based analysis. The format is functional, organism-based. Particulars: time 14.0 day.
Data set [6] can be described thus: Anti-fibrogenic activity in human LX2 cells assessed as inhibition of TGFbeta1-induced MMP2 mRNA expression at 10 uM incubated for 24 hrs by RT-PCR analysis. Type of data set: functional. Particulars: LX-2.
For data set [7], the system named is LX-2. The experiment in a line: Anti-fibrogenic activity in human LX2 cells assessed as inhibition of TGFbeta1-induced CTGF protein level at 3 to 10 uM incubated for 24 hrs by Western blot analysis. The format is functional, cell-based. The note with it: dose 3-10 µM. For orientation: Immunoblotting shows a protein as a band on a membrane.
Data set [8] concerns the target Mothers against decapentaplegic homolog 2/homolog 3 (Homo sapiens) (UniProt P84022+Q15796). The experiment in a line: Inhibition of TGF-beta1 induced SMAD2/3 phosphorylation in human LX2 cells at 3 to 10 uM incubated for 24 hrs by Western blot analysis. Type of data set: cell-based. Particulars: dose 3-10 µM.
The subject of data set [9] is LX-2. The experiment in a line: Anti-fibrogenic activity in human LX2 cells assessed as inhibition of TGFbeta1-induced TGFbeta1 protein level at 3 to 10 uM incubated for 24 hrs by Western blot analysis. The note with it: dose 3-10 µM. Type of data set: functional, cell-based.
The test system of data set [10] is Rattus norvegicus. The experiment in a line: Anti-fibrotic activity in Sprague-Dawley rat model of BDL-induced […] fibrosis assessed as reduction in hepatic collagen accumulation in portal areas at 200 mg/kg oral gavage for 14 days by Sirius red staining-based analysis. Type of data set: functional, organism-based. Particulars: time 14.0 day.
Data set [11] addresses Tyrosine-protein kinase JAK2 (Homo sapiens) (UniProt O60674). The experiment in a line: Inhibition of JAK2 phosphorylation in TGF-beta1 induced human LX2 cells at 3 to 10 uM incubated for 24 hrs by Western blot analysis. The format is cell-based. Particulars: dose 3-10 µM.
A short description of data set [12]: Anti-fibrogenic activity in human LX2 cells assessed as inhibition of TGFbeta1-induced TGFbeta1 mRNA expression at 3 uM incubated for 24 hrs by RT-PCR analysis. Type of data set: functional. Particulars: LX-2.
Data set [13] is filed under the species Rattus norvegicus. The experiment in a line: Anti-fibrotic activity in Sprague-Dawley rat model of BDL-induced […] fibrosis assessed as reduction in hepatic injury by hematoxylin and eosin staining based microscopic analysis. Type of data set: functional, organism-based.
A short description of data set [14]: Anti-fibrogenic activity in human LX2 cells assessed as inhibition of TGFbeta1-induced MMP2 mRNA expression at 3 uM incubated for 24 hrs by RT-PCR analysis. Type of data set: functional. Particulars: LX-2.
Data set [15] can be described thus: Anti-fibrogenic activity in human LX2 cells assessed as inhibition of TGFbeta1-induced ACTA2 mRNA expression at 3 uM incubated for 24 hrs by RT-PCR analysis. Type of data set: functional. The note with it: LX-2.
Data set [16] in a line: Anti-fibrogenic activity in human LX2 cells assessed as inhibition of TGFbeta1-induced CTGF mRNA expression at 10 uM incubated for 24 hrs by RT-PCR analysis. Type of data set: functional. The note with it: LX-2.
The subject of data set [17] is LX-2. The experiment in a line: Anti-fibrogenic activity in human LX2 cells assessed as inhibition of TGFbeta1-induced MMP2 protein level at 3 to 10 uM incubated for 24 hrs by Western blot analysis. The format is functional, cell-based. The note with it: dose 3-10 µM.
Data set [18] is described as follows: Anti-fibrogenic activity in human LX2 cells assessed as inhibition of TGFbeta1-induced ACTA2 mRNA expression at 10 uM incubated for 24 hrs by RT-PCR analysis. Type of data set: functional. Particulars: LX-2.
Data set [19] concerns the target Mothers against decapentaplegic homolog 3 (Homo sapiens) (UniProt P84022). Briefly: Inhibition of TGF-beta1 induced SMAD3 phosphorylation in human LX2 cells by Western blot analysis. The format is cell-based.
A further data set relates to LX2. The experiment in a line: Inhibition of PI3K/Akt pathway in human LX2 cells assessed as inhibition of TGF-beta1 induced AKT phosphorylation at 3 to 10 uM incubated for 24 hrs by Western blot analysis. The format is cell-based. Particulars: dose 3-10 µM.
The test system of data set [20] is LX-2. Briefly: Down regulation of PI3K expression in TGF-beta1 induced human LX2 cells after 24 hrs by Western blot analysis. The format is functional, cell-based.
Data set [21] relates to Rattus norvegicus. Briefly: Antifibrotic activity in Sprague-Dawley rat liver assessed as reduction in TGF-beta1-induced MMP2 protein expression at 200 mg/kg oral gavage for 14 days by Western blot analysis. The format is functional, organism-based. Particulars: time 14.0 day.
The subject of data set [22] is Rattus norvegicus. Briefly: Antifibrotic activity in Sprague-Dawley rat liver assessed as reduction in TGF-beta1-induced COL1A1 protein expression at 200 mg/kg oral gavage for 14 days by Western blot analysis. Type of data set: functional, organism-based. Particulars: time 14.0 day.
Data set [23] concerns LX-2. The experiment in a line: Down regulation of STAT3 expression in TGF-beta1 induced human LX2 cells at 3 to 10 uM after 24 hrs by Western blot analysis. The format is functional, cell-based. The note with it: dose 3-10 µM.
Data set [24] is described as follows: Anti-fibrogenic activity in human LX2 cells assessed as inhibition of TGFbeta1-induced CTGF mRNA expression at 3 uM incubated for 24 hrs by RT-PCR analysis. The note with it: LX-2. Type of data set: functional.
Data set [25] relates to LX-2. The experiment in a line: Down regulation of JAK3 expression in TGF-beta1 induced human LX2 cells at 3 to 10 uM after 24 hrs by Western blot analysis. Type of data set: functional, cell-based. The note with it: dose 3-10 µM.
For data set [26], the system named is Rattus norvegicus. The experiment in a line: Antifibrotic activity in Sprague-Dawley rat liver assessed as reduction in TGF-beta1-induced alpha-SMA protein expression at 200 mg/kg oral gavage for 14 days by Western blot analysis. The format is functional, organism-based. The note with it: time 14.0 day.
The nature of data set [27]: Anti-fibrogenic activity in human LX2 cells assessed as inhibition of TGFbeta1-induced TGFbeta1 mRNA expression at 10 uM incubated for 24 hrs by RT-PCR analysis. The format is functional. Particulars: LX-2.
The test system of data set [28] is LX-2. The experiment in a line: Anti-fibrogenic activity in human LX2 cells assessed as inhibition of TGFbeta1-induced COL1A1 protein level at 3 to 10 uM incubated for 24 hrs by Western blot analysis. The format is functional, cell-based. The note with it: dose 3-10 µM.
Data set [29] concerns Rattus norvegicus. The experiment in a line: Antifibrotic activity in Sprague-Dawley rat liver assessed as reduction in TGF-beta1-induced TGF-beta1 protein expression at 200 mg/kg oral gavage for 14 days by Western blot analysis. Particulars: time 14.0 day. Type of data set: functional, organism-based.

Ten compounds from ChEMBL document CHEMBL4840344, “Discovery of 1,8-naphthalidine derivatives as potent anti-hepatic fibrosis agents via repressing PI3K/AKT/Smad and JAK2/STAT3 pathways” (Bioorg Med Chem, 2021) can be followed below.

The source made the active and inactive calls. No cut-off for these calls is given here.

Chain of Tyrosine-protein kinase JAK2 (Homo sapiens) (O60674 whole entry): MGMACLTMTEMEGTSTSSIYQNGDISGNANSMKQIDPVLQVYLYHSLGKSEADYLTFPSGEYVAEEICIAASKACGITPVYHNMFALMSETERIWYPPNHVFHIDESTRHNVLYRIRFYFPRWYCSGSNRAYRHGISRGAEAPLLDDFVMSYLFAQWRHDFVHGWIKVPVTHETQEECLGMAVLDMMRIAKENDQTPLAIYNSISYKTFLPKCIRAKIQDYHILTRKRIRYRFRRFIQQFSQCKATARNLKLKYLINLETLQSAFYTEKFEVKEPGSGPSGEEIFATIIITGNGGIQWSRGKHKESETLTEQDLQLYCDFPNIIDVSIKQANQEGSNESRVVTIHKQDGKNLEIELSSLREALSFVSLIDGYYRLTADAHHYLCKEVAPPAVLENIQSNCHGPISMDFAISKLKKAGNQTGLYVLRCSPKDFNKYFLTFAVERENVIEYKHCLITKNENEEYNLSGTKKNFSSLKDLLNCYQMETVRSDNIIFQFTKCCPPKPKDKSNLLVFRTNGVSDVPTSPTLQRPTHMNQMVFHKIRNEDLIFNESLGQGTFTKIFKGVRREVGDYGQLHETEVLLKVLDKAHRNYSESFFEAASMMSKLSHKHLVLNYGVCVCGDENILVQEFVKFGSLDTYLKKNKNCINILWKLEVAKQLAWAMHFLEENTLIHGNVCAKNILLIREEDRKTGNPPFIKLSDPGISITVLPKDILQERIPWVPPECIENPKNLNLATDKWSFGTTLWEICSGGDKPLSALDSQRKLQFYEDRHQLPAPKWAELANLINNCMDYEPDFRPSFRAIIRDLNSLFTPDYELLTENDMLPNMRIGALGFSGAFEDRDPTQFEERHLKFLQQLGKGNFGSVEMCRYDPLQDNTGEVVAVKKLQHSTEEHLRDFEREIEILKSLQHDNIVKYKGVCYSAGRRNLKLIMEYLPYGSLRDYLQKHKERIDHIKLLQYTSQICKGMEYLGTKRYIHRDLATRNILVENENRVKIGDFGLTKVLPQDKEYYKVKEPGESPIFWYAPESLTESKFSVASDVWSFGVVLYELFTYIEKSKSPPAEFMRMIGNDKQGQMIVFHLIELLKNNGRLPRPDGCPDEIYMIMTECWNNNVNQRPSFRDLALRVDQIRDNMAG
Chain of Mothers against decapentaplegic homolog 2/homolog 3 (Homo sapiens) (P84022 whole entry, looked up): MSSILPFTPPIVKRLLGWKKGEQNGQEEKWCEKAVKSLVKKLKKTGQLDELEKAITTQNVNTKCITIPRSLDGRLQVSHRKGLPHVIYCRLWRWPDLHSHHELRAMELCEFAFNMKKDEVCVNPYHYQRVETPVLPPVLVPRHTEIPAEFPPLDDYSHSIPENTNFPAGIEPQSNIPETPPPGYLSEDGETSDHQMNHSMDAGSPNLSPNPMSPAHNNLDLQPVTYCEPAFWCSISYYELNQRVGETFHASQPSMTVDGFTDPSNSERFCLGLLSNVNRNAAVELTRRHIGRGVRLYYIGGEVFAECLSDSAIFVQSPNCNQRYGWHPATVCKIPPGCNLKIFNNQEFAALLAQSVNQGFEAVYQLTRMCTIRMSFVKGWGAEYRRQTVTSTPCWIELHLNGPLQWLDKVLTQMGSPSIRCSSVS
Chain of Mothers against decapentaplegic homolog 2/homolog 3 (Homo sapiens) (Q15796 whole entry, looked up): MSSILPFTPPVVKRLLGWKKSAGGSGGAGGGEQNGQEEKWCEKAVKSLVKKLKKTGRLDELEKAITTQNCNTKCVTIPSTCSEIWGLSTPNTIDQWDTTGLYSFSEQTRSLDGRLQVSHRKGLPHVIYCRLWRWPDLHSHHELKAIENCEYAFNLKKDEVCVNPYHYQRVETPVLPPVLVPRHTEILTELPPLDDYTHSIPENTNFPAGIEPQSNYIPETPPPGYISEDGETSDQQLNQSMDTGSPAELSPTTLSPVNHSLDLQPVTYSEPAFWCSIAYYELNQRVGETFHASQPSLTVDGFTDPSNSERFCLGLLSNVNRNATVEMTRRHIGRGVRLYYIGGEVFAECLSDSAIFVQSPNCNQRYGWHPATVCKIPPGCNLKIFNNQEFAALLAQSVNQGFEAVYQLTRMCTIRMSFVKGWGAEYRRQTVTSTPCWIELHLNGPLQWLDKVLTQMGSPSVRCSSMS
Chain of Mothers against decapentaplegic homolog 3 (Homo sapiens) (P84022 2-425 limits assumed): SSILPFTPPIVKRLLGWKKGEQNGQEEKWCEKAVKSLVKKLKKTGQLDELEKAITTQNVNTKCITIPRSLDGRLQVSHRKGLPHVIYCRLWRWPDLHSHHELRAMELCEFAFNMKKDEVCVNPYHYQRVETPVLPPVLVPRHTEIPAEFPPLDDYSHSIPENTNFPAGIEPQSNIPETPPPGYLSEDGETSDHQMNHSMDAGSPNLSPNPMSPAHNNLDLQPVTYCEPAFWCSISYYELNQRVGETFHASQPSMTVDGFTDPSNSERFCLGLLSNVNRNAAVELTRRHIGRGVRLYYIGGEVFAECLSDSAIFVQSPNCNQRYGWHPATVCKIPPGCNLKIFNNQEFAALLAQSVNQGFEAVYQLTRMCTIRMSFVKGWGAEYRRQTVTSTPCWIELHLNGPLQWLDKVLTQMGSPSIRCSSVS

Consider `CN(C)c1ccc2c(=O)c(C(=O)Nc3cc(F)cc(F)c3)cn(-c3ccc(OCCCCCCC[N+](C)(C)C4CCCCC4)c(Cl)c3)c2n1`, for which, in data set [1], the inhibition (as a rule, the share of the control response that was lost under treatment) at 10 µM turned out to be 30.2%. The inhibition in the data set with COL1A1 promoter [2] came out at 86.2%; in the data set on COL1A1 promoter [4], 34.8%. For the same compound, the CC50 – broadly, the concentration that lowers cell viability or growth by half – at 24 h in data set [3] is more than 100 µM.
With `Cc1cc(OCCCCCCC[N+]2(C)CCCCC2)cc(-n2cc(C(=O)Nc3cc(F)cc(F)c3)c(=O)c3ccc(N(C)C)nc32)c1`, the inhibition at 10 µM in [1] was determined as 23.1%. The inhibition in the data set on COL1A1 promoter [2] is 79.7%; with COL1A1 promoter [4] it was 46.8%. In addition, the CC50 at 24 h in data set [3] was 99.4 µM.
`CC[N+]1(CCCCCCCOc2ccc(-n3cc(C(=O)Nc4cc(F)cc(F)c4)c(=O)c4ccc(N(C)C)nc43)cc2C)CCCC1`: in data set [1], the inhibition at 10 µM stood at 48.5%. The figures for the inhibition in the data set on COL1A1 promoter [2] and in the data set with COL1A1 promoter [4] were 82.5% and 44.6%, respectively. In addition, the CC50 at 24 h in data set [3] was more than 100 µM.
Regarding `CN(C)c1ccc2c(=O)c(C(=O)Nc3cc(F)cc(F)c3)cn(-c3ccc(Cl)c(OCCCCCCC[N+](C)(C)C4CCCCC4)c3)c2n1`, the inhibition at 10 µM in [1] was 40.2%. In addition, the inhibition was found to be 81.4% in the data set with COL1A1 promoter [2] and 37.6% with COL1A1 promoter [4]. Also, the CC50 at 24 h in data set [3] is more than 100 µM.
In the case of `CN1CC[N+](C)(CCCCCCCOc2ccc(-n3cc(C(=O)Nc4cc(F)cc(F)c4)c(=O)c4ccc(N(C)C)nc43)c(Cl)c2)CC1`, the inhibition entry with COL1A1 promoter [2] and in the data set on COL1A1 promoter [4] was “inactive” in each case. The CC50 at 24 h in [3] is less than 20 µM.
Regarding `CC[N+]1(CCCCCCCOc2cc(-n3cc(C(=O)Nc4cc(F)cc(F)c4)c(=O)c4ccc(N(C)C)nc43)ccc2C)CCCC1`, the outcome in the data set with Rattus norvegicus [5], in the data set with Rattus norvegicus [10], in the data set filed under Rattus norvegicus [13], in the data set on Rattus norvegicus [21], in the data set on Rattus norvegicus [22] and in the data set with Rattus norvegicus [26] was Active. The outcome in the data set with Rattus norvegicus [29] was Active. For the same compound, the inhibition at 10 µM in data set [6] is 52.4%; in [1] it was 79.7%; in [16], 67.1%; in [18] it was 83.6%; in data set [27], 47%. The inhibition entry (in the data set on LX-2 [7]; in the data set on LX-2 [9]; in data set [11]; in the data set with LX-2 [17]; with LX-2 [28]) was “Active” each time. Further, the inhibition result was “Dose-Dependent Effect” in [8]; “Dose-Dependent Effect” in data set [19]; “Dose-Dependent Effect” with LX2; 81.3% in the data set on COL1A1 promoter [2]; 57% with COL1A1 promoter [4]. Moreover, the inhibition at 3 µM in data set [12] was 28.9%; in data set [14], 36.8%; in data set [15], 76.3%; in data set [24], 32%. Besides, the Activity result with LX-2 [20], with LX-2 [23] and in the data set on LX-2 [25] was “Dose-Dependent Effect” throughout. In data set [3], the CC50 at 24 h was determined as 95 µM.
For `CC[N+]1(CCCCCCCOc2cc(C)cc(-n3cc(C(=O)Nc4cc(F)cc(F)c4)c(=O)c4ccc(N(C)C)nc43)c2)CCCCC1`, the inhibition at 10 µM in data set [6] worked out at 63.7%; in data set [1], 70.8%; in [16], 68.1%; in data set [18], 80.8%; in [27], 66%. In addition, the inhibition entry (in the data set with LX-2 [7]; in the data set with LX-2 [9]; in [11]; in the data set with LX-2 [17]; in the data set on LX-2 [28]) was “Active” each time. The inhibition result is “Dose-Dependent Effect” in data set [8]; “Dose-Dependent Effect” in [19]; “Dose-Dependent Effect” in the data set on LX2; 86.6% in the data set with COL1A1 promoter [2]; 67.2% in the data set with COL1A1 promoter [4]. Further, the inhibition at 3 µM in [12] is 18.9%; in data set [14] it was 40.8%; in data set [15], 74.9%; in data set [24] it was 30.8%. Further, the Activity entry with LX-2 [20], in the data set with LX-2 [23] and in the data set on LX-2 [25] was “Dose-Dependent Effect” each time. Further, in data set [3], the CC50 at 24 h came out at 97.6 µM.
As for `Cc1cc(OCCCCCCC[N+]2(C)CCCCC2)ccc1-n1cc(C(=O)Nc2cc(F)cc(F)c2)c(=O)c2ccc(N(C)C)nc21`, the inhibition entry with COL1A1 promoter [2] and with COL1A1 promoter [4] was “inactive” each time. The CC50 at 24 h in data set [3] is less than 20 µM.
As to `O=C(O[C@@H]1Cc2c(O)cc(O)cc2O[C@@H]1c1cc(O)c(O)c(O)c1)c1cc(O)c(O)c(O)c1` [EPIGALOCATECHIN GALLATE], the inhibition was determined as 32.2% in the data set on COL1A1 promoter [2] and 19.2% in the data set with COL1A1 promoter [4]. The CC50 at 24 h in data set [3] was more than 100 µM.
For `CN(C)c1ccc2c(=O)c(C(=O)Nc3cc(F)cc(F)c3)cn(-c3ccc(Cl)c(OCCCCCCC[n+]4ccccc4)c3)c2n1`, the inhibition at 10 µM in data set [1] was 53.6%. This compound also gave an inhibition in the data set on COL1A1 promoter [2] of 77.8%. Also, the CC50 at 24 h in data set [3] stood at 105 µM. Moreover, the inhibition result with COL1A1 promoter [4] was “inactive”.
